Reference: patent publication US20100081690A1, “OXAZOLE DERIVATIVES AS POSITIVE ALLOSTERIC MODULATORS OF METABOTROPIC GLUTAMATE RECEPTORS” (ADDEX PHARMA SA, priority 2006, published 2010)

What was measured:
mGluR5 = molecular target: T1, mGluR5 (Rattus norvegicus, UniProt P31424); test: mGluR5 assay on rat cultured cortical astrocytes (Ca2+ mobilization, FLIPR); format: cell-based; conditions: in the presence of 300 nM glutamate
T1 construct: positive allosteric modulators of mGluR5 receptors in native preparations; endogenous in cells; host or cells: primary cortical astrocytes from Sprague-Dawley rat embryos (E16-19)
T1 sequence (P31424 21-1203): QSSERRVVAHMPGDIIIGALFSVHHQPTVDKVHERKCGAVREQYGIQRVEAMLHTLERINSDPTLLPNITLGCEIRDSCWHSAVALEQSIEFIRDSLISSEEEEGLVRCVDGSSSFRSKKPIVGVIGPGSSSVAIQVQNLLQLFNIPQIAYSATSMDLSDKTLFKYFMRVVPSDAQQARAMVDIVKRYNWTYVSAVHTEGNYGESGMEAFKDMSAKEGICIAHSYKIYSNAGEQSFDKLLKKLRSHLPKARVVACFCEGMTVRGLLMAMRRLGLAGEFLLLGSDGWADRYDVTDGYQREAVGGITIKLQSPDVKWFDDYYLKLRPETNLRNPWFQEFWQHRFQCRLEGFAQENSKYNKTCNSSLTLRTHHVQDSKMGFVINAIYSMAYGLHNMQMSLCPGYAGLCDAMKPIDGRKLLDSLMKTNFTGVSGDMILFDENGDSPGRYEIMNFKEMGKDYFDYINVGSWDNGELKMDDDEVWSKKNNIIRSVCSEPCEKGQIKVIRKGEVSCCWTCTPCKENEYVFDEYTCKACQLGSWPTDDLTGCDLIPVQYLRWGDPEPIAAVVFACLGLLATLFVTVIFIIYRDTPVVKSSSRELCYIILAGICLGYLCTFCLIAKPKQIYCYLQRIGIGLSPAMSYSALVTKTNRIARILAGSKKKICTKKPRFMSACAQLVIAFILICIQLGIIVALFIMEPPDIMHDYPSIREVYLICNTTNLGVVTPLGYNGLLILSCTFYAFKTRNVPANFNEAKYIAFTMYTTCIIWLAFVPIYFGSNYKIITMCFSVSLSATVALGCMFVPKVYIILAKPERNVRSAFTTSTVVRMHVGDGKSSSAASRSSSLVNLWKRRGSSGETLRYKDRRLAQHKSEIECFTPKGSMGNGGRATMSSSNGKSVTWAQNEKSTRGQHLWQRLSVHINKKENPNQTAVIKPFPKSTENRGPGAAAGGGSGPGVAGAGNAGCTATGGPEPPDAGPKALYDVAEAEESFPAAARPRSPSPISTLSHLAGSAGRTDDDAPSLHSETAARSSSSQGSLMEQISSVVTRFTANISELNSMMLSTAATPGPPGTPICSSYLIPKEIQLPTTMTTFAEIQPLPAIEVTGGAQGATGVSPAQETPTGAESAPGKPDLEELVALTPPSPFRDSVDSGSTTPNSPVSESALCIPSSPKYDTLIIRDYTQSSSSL
Description: Under exposure to growth factors (basic fibroblast growth factor, epidermal growth factor), rat cultured astrocytes express group I-Gq coupled mGluR transcripts, namely mGluR5, but none of the splice variants of mGluR1, and as a consequence, a functional expression of mGluR5 receptors (Miller et al. (1995) J. Neurosci. 15:6103-9): The stimulation of mGluR5 receptors with selective agonist CHPG and the full blockade of the glutamate-induced phosphoinositide (PI) hydrolysis and subsequent intracellular calcium mobilization with specific antagonist as MPEP confirm the unique expression of mGluR5 receptors in this preparation. […]
After one day of incubation, cells were washed with assay buffer containing: 142 mM NaCl, 6 mM KCl, 1 mM Mg2SO4, 1 mM CaCl2, 20 mM HEPES, 1 g/L glucose, 0.125 mM sulfinpyrazone, pH 7.4. […] The plates were then transferred to a Fluorometric Imaging Plate Reader (FLIPR, Molecular Devices, Sunnyvale, Calif.) for the assessment of intracellular calcium flux. After monitoring the baseline fluorescence for 10 s, a solution containing […] of representative compound of the present invention diluted in Assay Buffer (15 μl of 4× dilutions) was added to the cell plate in the absence or in the presence of 300 nM of glutamate. […] In each experiment, fluorescence was then monitored as a function of time for 3 minutes and the data analyzed using Microsoft Excel and GraphPad Prism. […]

EC50 (mGluR5): < 1000 nM | melting point: 136 °C
SMILES: O=C(c1ccc(F)cc1)N1CCC[C@H](c2nc(-c3cc(F)c[nH]3)co2)C1 [Example 1, (4-Fluoro-phenyl)-{(S)-3-[4-(4-fluoro-1H-pyrrol-2-yl)-oxazol-2-yl]-piperidin-1-yl}-methanone]
